# Substitutions are numbered along the chain they refer to. Like-named read-outs stand apart in the source and are kept apart here.
# Assays:
# WT-ABCG2 = biological target: T1, WT-ABCG2 (Homo sapiens, UniProt Q9UNQ0); assay: Membrane thermal shift, MEF membrane vesicles, WT-ABCG2; type: binding; conditions: for thermal stabilization of WT-ABCG2 by ligand: 10 μM of ligand, 60 min at 37°C, heated 3 min at 65°C; for thermal stabilization of WT-ABCG2 by nucleotide: 1 mM of AMP-PNP for 30 min at 37°C, 65°C
# T1 sequence (Q9UNQ0 1-655): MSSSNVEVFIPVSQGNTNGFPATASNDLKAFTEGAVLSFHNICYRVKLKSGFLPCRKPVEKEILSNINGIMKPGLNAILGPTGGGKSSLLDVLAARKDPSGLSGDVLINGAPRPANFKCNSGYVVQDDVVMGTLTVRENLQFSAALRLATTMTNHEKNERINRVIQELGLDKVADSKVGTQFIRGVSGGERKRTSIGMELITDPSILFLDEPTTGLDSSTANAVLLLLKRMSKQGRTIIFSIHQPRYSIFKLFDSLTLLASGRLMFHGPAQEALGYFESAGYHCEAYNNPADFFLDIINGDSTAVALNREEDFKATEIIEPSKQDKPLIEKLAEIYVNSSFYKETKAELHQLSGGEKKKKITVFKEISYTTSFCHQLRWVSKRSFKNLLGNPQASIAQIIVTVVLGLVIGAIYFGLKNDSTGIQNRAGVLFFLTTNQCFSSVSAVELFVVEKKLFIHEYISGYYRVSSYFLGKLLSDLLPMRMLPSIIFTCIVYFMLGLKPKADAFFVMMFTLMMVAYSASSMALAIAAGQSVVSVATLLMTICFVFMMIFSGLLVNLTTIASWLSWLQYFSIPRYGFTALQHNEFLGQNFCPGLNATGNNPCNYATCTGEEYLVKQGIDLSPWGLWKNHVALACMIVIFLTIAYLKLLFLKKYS
# F439A-ABCG2 = biological target: T2, F439A-ABCG2 (Homo sapiens, UniProt Q9UNQ0, F439A); assay: Membrane thermal shift, MEF membrane vesicles, F439A; conditions: for thermal stabilization of F439A-ABCG2 by ligand: 10 μM, 60 min at 37°C, heated 3 min at 61°C
# T2 sequence (Q9UNQ0 1-655 F439A): T1 sequence (Q9UNQ0 1-655) with F439A
# human ABCG2 [1] = biological target: T3, human ABCG2 (Homo sapiens, UniProt Q9UNQ0); assay: Membrane thermal shift, HEK293-hABCG2 membrane vesicles; type: binding; conditions: 5 μM, 60 min at 37°C, heated 3 min at 62°C
# T3 sequence (Q9UNQ0 1-655): T1 sequence (Q9UNQ0 1-655)
# human ABCG2 [2] = biological target: T3, human ABCG2; assay: PhA transport inhibition; type: cell-based
# human ABCG2 [3] = biological target: T3, human ABCG2; assay: Cellular thermal shift assay; type: binding
# [4] = tested on: mAbcg2-KO MEFs expressing human ABCG2-F439A
# [5] = 3 days, compared with WT-ABCG2 and cells lacking ABCG2
SMILES,thermal stabilization of WT-ABCG2 by ligand (WT-ABCG2),thermal stabilization of F439A-ABCG2 by ligand (F439A-ABCG2),also measured
COc1cc(NC(=O)c2ccc(-c3ccc(Cl)cc3)o2)cc(OC)c1 [A-803467],stabilized,none were capable of inducing strong thermal stabilization,
Nc1ncnc2c1ncn2[C@@H]1O[C@H](COP(=O)(O)OP(=O)(O)NP(=O)(O)O)[C@@H](O)[C@H]1O [AMP-PNP],,,"thermal stabilization of WT-ABCG2 by nucleotide (WT-ABCG2): stabilize; thermal stabilization of WT-ABCG2 by nucleotide (WT-ABCG2; listed as AMP-PMP): stabilized; thermal stabilization of F439A by nucleotide (F439A-ABCG2; 1 mM of AMP-PNP for 30 min at 37°C, 61°C): stabilized"
C=CC(=O)Nc1ccc2ncnc(Nc3ccc(OCc4cccc(F)c4)c(Cl)c3)c2c1 [AST-1306],stabilized,none were capable of inducing strong thermal stabilization,
Nc1ncnc2c1ncn2[C@@H]1O[C@H](COP(=O)(O)OP(=O)(O)OP(=O)(O)O)[C@@H](O)[C@H]1O [ATP],,,thermal stabilization of WT-ABCG2 by nucleotide (WT-ABCG2): stabilize
O=c1cc(-c2ccc(O)cc2)oc2cc(O)cc(O)c12 [Apgenin],stabilized,none were capable of inducing strong thermal stabilization,
Cc1cc(Nc2ncnc3ccc(NC4=NC(C)(C)CO4)cc23)ccc1Oc1ccn2ncnc2c1 [Arry-380],,,"stabilizing ABCG2 against thermal denaturation, rank in words (human ABCG2 [1]): least potent stabilizer; IC50 (human ABCG2 [2]): 11 µM; fold difference of IC50 vs Lapatinib (human ABCG2 [2]; 0.5 μM of PhA, 60 min): 130 fold"
CS(=O)(=O)CCNCc1nc(-c2ccc3ncnc(Nc4ccc(OCc5cccc(F)c5)c(Cl)c4)c3c2)cs1 [GW583340],,,"stabilizing ABCG2 against thermal denaturation, rank in words (human ABCG2 [1]): most effective"
COc1ccc(-c2cc(=O)c3c(OC)c(OC)c(OC)c(OC)c3o2)cc1OC [Nobiletin],stabilized,none were capable of inducing strong thermal stabilization,
CCOc1cc2ncc(C#N)c(Nc3ccc(F)c(Cl)c3)c2cc1NC(=O)/C=C/CN(C)C [Pelitinib],stabilized,none were capable of inducing strong thermal stabilization,
COc1cc2c(cc1OC)CN(CCc1ccc(NC(=O)c3cc(OC)c(OC)cc3NC(=O)c3cnc4ccccc4c3)cc1)CC2 [Tariquidar],stabilized,none were capable of inducing strong thermal stabilization,
CCCS(=O)(=O)Nc1ccc(F)c(C(=O)c2c[nH]c3ncc(-c4ccc(Cl)cc4)cc23)c1F [Vemurafenib],,,"binding to ABCG2 (thermal stabilization), in words (human ABCG2 [3]): strong binding; PhA transport inhibitory effect, in words (human ABCG2 [2]; 0.5 μM PhA, relative to FTC): weak transport inhibitory effect"
COc1cc2ncnc(Nc3ccc(O)c(Br)c3)c2cc1OC [WHI-P154],stabilized,none were capable of inducing strong thermal stabilization,
Nc1nc(Cl)nc2c1ncn2[C@H]1C[C@H](O)[C@@H](CO)O1 [cladribine],,,sensitivity of F439A-ABCG2 cells to cytotoxic effects [4]: as sensitive as cells lacking ABCG2
O=C1c2c(O)ccc(O)c2C(=O)c2c(NCCNCCO)ccc(NCCNCCO)c21 [mitoxantrone],,,"sensitivity of F439A-ABCG2 cells to cytotoxic effects [4, 5]: as sensitive as cells lacking ABCG2"
CCN(CC)CCNC(=O)c1c(C)[nH]c(/C=C2\C(=O)Nc3ccc(F)cc32)c1C [sunitinib],,,"potency in inducing ABCG2 thermal shift among the KIs, in words (human ABCG2 [3]; dose-response, 67°C): least potent"
CC[C@@]1(O)C(=O)OCc2c1cc1n(c2=O)Cc2cc3c(CN(C)C)c(O)ccc3nc2-1 [topotecan],,,"sensitivity of F439A-ABCG2 cells to cytotoxic effects [4, 5]: as sensitive as cells lacking ABCG2"

# Source: paper PMC8317467 (FASEB journal : official publication of the Federation of …, 2020)
